# Measured values from PMC6766871 (International Journal of Cancer, 2019).
# Where two headings read alike, the source gives them in different places.
# Legend:
# [1] = test system: FGFR1-amplified squamous NSCLC; conditions: initial clinical results; cited from earlier work
# [2] = test system: DMS-114 human SCLC xenograft; assay: antitumor efficacy, DMS-114 lung cancer xenograft in NMRI nu/nu mice; conditions: for T/C volume: rogaratinib 50 mg/kg BID p.o., docetaxel 30 mg/kg Q7D i.v., carboplatin 80 mg/kg Q7D / paclitaxel 24 mg/kg Q7D i.p., 10 days
# [3] = test system: LU299 human lung cancer PDX; assay: antitumor efficacy, patient-derived LU299 lung cancer xenograft in nu/nu mice; conditions: 33 days
# [4] = body weight monitoring in tumor-bearing mice; type: in vivo, mouse
# LXFL1121 human NSCLC PDX = assay: antitumor efficacy, patient-derived LXFL1121 NSCLC xenograft in NMRI nu/nu mice
# [5] = test system: p-ERK1/2 in MDA-MB-453 cells; assay: Western blot, ERK1/2 phosphorylation; type: cell-based, human; conditions: MDA-MB-453, 0–1,000 nM, 2 h
# [6] = test system: p-FGFR2 and p-ERK1/2 in NCI-H716 tumors; assay: PK/PD, phosphorylation of FGFR2 and ERK1/2 in NCI-H716 tumor tissue; type: in vivo, mouse
# [7] = test system: p-FGFR4 in MDA-MB-453 cells; assay: Western blot, FGFR4 auto-phosphorylation; type: cell-based, human; conditions: MDA-MB-453, 0–1,000 nM, 2 h
# [8] = plasma pharmacokinetics in NCI-H716 tumor-bearing NMRI nu/nu mice
# [9] = test system: p-FGFR2 in NCI-H716 cells; assay: Western blot, FGFR2 auto-phosphorylation; type: cell-based, human; conditions: NCI-H716, 100 nM
# [10] = test system: p-ERK1/2 in NCI-H520 cells; assay: Western blot, ERK1/2 phosphorylation; type: cell-based, human; conditions: NCI-H520, 0–10,000 nM
# [11] = test system: pERK1/2 (T202/Y204,T185/Y187) in C51 cells; assay: ERK1/2 phosphorylation, MSD-ELISA; type: cell-based; conditions: Mus musculus, read-out: IC50 pERK1/2 (T202/Y204,T185/Y187)
# CSF1R [12] = target: T1, CSF1R (Homo sapiens, UniProt P07333); assay: kinase inhibition assay; type: biochemical
# T1 sequence (P07333 20-972): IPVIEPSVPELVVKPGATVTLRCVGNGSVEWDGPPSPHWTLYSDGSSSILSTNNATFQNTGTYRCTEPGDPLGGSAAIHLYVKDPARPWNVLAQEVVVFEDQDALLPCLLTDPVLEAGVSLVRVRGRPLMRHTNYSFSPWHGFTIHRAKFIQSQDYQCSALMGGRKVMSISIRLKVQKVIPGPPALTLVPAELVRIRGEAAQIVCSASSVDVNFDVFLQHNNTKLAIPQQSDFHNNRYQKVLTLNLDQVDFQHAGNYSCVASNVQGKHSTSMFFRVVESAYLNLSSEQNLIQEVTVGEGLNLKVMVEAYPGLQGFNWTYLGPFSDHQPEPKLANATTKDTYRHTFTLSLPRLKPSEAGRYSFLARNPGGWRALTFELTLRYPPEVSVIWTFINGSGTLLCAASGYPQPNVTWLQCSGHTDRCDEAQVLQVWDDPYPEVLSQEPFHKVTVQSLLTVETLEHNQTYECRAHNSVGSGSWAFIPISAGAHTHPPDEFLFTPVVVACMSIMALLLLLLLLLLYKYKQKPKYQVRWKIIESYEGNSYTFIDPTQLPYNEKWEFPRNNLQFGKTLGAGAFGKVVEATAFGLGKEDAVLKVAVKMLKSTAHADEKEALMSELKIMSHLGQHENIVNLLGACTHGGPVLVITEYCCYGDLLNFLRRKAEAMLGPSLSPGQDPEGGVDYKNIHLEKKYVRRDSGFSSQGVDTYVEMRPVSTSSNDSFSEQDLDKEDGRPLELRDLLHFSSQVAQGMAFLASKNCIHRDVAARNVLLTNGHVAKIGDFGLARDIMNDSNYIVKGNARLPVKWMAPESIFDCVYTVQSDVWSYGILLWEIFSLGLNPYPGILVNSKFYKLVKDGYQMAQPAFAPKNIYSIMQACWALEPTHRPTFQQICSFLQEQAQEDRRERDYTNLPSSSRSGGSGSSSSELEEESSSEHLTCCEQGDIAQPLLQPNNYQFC
# FGFR2 [13] = target: T2, FGFR2 (Homo sapiens, UniProt P21802); assay: radiometric kinase activity assay; type: biochemical
# T2 sequence (P21802 481-770 limits assumed): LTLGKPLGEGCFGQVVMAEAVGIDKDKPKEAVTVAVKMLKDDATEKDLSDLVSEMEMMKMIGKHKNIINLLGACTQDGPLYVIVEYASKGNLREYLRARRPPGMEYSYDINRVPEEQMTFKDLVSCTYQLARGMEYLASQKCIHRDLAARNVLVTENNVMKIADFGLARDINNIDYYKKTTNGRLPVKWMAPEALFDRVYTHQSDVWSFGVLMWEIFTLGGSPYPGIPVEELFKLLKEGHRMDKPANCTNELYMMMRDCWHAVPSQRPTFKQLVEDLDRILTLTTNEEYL
# 77 non-kinase targets = assay: PanLabs Safety screen, whole panel; conditions: 10 µM
# VEGFR3 [14] = target: T3, VEGFR3 (Homo sapiens, UniProt P35916); assay: KINOMEscan competition binding
# T3 sequence (P35916 25-1363): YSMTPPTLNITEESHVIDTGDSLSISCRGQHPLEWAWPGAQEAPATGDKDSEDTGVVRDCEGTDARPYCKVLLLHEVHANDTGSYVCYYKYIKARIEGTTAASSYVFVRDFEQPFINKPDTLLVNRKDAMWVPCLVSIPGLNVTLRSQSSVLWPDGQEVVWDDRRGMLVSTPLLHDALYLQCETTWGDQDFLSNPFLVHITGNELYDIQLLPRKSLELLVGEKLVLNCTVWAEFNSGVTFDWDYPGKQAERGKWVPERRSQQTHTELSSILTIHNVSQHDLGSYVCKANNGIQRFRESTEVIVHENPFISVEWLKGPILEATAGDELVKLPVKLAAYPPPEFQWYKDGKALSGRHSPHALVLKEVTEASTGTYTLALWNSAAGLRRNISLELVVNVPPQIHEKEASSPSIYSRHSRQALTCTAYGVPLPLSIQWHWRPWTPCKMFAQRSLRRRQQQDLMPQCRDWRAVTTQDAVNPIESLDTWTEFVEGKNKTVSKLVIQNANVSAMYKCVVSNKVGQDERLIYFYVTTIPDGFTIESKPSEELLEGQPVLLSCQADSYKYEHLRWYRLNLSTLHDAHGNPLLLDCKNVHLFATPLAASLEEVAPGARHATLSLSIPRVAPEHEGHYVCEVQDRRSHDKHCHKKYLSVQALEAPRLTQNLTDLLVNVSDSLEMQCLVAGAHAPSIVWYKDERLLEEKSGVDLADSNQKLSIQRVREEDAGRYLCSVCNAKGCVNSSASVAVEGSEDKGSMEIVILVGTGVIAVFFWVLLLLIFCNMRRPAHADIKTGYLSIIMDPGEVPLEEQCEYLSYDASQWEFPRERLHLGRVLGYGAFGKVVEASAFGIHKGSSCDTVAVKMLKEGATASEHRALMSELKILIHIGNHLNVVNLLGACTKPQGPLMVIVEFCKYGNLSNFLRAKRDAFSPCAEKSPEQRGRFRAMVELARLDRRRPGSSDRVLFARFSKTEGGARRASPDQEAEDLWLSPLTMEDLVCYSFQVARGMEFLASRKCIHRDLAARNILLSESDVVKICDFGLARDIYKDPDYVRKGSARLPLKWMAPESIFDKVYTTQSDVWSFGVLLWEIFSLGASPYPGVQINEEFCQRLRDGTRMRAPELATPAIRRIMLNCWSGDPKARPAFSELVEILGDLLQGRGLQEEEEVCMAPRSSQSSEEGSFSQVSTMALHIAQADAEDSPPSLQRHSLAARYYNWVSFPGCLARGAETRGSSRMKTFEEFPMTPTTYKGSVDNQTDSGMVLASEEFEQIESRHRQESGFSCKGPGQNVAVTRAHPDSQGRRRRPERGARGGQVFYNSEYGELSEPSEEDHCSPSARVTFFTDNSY
# p-ERK1/2 in RT-112 cells = assay: Western blot, ERK1/2 phosphorylation; type: cell-based, human; conditions: RT-112, 0–10,000 nM
# 468 kinase targets = assay: KINOMEscan profiling, kinase panel; type: binding; conditions: of 403 non-mutant kinases
# [15] = test system: p-ERK1/2 in UM-UC-3 cells; assay: Western blot, ERK1/2 phosphorylation; type: cell-based, human; conditions: UM-UC-3, 0–10,000 nM
# [16] = test system: pERK1/2 (T202/Y204,T185/Y187) in MFM-223 cells; assay: FGF2-induced ERK1/2 phosphorylation, MSD-ELISA; type: cell-based; conditions: Homo sapiens, MFM-223, read-out: IC50 pERK1/2 (T202/Y204,T185/Y187)
# FGF2-stimulated HUVEC = assay: HUVEC growth assay, FGF2-stimulated; type: cell-based; conditions: Homo sapiens, 72 h, read-out: IC50 inhibition of FGF2-stimulated growth
# [17] = maximally tolerated dose in Balb/cJ mice; type: in vivo, mouse
# VEGFR3 [18] = target: T3, VEGFR3; assay: kinase inhibition assay; type: biochemical
# [19] = test system: p-ERK1/2 in NCI-H716 cells; assay: Western blot, ERK1/2 phosphorylation; type: cell-based, human; conditions: NCI-H716, 100 nM
# VEGFR1 = VEGFR1 (Homo sapiens, UniProt P17948); assay: KINOMEscan competition binding
# Sequence of VEGFR1 (P17948 27-1338): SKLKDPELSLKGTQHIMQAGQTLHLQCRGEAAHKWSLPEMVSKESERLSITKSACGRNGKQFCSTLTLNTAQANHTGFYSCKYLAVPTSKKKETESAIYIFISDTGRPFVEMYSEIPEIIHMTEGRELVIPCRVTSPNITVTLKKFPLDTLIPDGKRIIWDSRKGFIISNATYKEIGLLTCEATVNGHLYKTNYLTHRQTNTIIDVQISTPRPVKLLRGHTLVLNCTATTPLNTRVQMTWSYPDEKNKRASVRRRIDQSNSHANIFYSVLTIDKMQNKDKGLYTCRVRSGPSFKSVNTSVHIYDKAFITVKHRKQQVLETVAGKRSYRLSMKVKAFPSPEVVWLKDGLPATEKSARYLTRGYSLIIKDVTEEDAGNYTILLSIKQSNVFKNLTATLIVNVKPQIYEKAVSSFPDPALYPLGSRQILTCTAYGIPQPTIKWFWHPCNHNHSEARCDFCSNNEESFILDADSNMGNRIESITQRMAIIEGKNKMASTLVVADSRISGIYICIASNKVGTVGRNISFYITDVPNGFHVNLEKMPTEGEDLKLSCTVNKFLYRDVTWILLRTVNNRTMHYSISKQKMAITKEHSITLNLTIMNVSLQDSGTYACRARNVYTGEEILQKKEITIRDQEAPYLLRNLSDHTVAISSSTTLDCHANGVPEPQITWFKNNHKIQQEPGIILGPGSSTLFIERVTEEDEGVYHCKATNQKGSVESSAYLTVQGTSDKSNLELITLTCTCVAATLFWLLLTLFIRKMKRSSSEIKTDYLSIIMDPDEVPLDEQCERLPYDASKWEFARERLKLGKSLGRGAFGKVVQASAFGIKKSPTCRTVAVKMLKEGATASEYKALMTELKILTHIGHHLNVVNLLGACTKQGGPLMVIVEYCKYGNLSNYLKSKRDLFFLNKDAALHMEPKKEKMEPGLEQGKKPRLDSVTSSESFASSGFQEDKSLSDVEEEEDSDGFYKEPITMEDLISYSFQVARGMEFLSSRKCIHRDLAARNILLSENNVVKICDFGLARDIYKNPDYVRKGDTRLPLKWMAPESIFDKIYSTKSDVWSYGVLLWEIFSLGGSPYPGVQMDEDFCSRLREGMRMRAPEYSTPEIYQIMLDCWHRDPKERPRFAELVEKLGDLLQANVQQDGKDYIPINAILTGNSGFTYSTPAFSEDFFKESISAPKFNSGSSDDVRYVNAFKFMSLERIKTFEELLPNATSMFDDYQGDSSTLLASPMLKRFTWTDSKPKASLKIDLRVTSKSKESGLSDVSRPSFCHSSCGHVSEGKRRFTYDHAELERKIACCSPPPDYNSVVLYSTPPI
# FGFR2 [20] = target: T2, FGFR2; assay: KINOMEscan competition binding
# [21] = test system: NCI-H716 human colon cancer xenograft; assay: antitumor efficacy, NCI-H716 colorectal xenograft in NMRI nu/nu mice; conditions: 50 mg/kg BID; 1/8 mice
# [22] = test system: pERK1/2 (T202/Y204,T185/Y187) in DMS-114 cells; assay: FGF2-induced ERK1/2 phosphorylation, MSD-ELISA; type: cell-based; conditions: Homo sapiens, DMS-114, read-out: IC50 pERK1/2 (T202/Y204,T185/Y187)
# TIE2 = TIE2 (Homo sapiens, UniProt Q02763); assay: kinase inhibition assay; type: biochemical
# Sequence of TIE2 (Q02763 23-1124): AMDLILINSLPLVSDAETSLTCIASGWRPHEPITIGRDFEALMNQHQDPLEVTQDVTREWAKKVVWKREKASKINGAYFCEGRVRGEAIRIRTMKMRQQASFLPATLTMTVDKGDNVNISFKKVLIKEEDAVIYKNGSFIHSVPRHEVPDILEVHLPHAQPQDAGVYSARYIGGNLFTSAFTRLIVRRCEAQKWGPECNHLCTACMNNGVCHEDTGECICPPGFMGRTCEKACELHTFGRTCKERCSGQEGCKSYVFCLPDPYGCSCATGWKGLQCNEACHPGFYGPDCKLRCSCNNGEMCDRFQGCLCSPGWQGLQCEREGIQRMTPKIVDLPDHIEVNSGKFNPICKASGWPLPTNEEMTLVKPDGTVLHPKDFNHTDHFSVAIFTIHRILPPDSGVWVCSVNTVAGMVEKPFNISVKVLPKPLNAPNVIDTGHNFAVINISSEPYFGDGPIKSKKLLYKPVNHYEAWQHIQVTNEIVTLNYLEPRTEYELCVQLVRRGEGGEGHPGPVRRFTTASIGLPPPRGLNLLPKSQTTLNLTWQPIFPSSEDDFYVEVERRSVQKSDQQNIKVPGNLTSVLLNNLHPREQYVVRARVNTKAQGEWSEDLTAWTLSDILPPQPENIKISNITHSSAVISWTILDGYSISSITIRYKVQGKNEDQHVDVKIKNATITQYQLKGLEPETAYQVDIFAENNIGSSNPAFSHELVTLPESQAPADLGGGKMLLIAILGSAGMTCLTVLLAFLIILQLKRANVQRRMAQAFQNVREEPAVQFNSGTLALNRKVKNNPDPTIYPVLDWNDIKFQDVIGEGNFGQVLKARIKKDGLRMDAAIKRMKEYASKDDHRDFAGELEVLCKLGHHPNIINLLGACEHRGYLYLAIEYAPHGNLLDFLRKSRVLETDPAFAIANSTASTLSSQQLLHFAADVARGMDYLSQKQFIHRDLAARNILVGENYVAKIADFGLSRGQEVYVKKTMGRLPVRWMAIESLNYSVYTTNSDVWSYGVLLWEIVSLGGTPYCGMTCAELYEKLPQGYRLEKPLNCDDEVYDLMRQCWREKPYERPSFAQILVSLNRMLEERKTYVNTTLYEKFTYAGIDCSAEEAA
# C51 colon tumors [23] = assay: antitumor efficacy, C51 colon cancer model in nude rats
# [24] = test system: p-ERK1/2 in NCI-H1581 cells; assay: Western blot, ERK1/2 phosphorylation; type: cell-based, human; conditions: NCI-H1581, 0–10,000 nM
# CSF1R [25] = target: T1, CSF1R; assay: KINOMEscan competition binding; conditions: 100 nM rogaratinib
# C51 colon tumors [26] = assay: antitumor efficacy, syngeneic C51 colon cancer model in BALB/cJ mice; conditions: for partial response (PR) rate (RECIST): 2/9 mice
# VEGF-A-stimulated HUVEC = assay: HUVEC growth assay, VEGF-A-stimulated; type: cell-based, human; conditions: for IC50: Homo sapiens, 72 h
# [27] = body weight monitoring in tumor-bearing rats; type: in vivo, rat; conditions: C51 model, nude rats, monotherapy
structure (smiles),measurement,setting,value
"CCN1CCN(c2ccc(Nc3cc(N(C)C(=O)Nc4c(Cl)c(OC)cc(OC)c4Cl)ncn3)cc2)CC1 [BGJ398, 3‐(2,6‐dichloro‐3,5‐dimethoxy‐phenyl)‐1‐{6‐[4‐(4‐ethyl‐piperazin‐1‐yl)‐phenylamino]‐pyrimidin‐4‐yl}‐1‐methyl‐urea]",response rate,[1],11%
"CC(=O)O[C@@]12CO[C@@H]1C[C@H](O)[C@@]1(C)C(=O)[C@H](O)C3=C(C)[C@@H](OC(=O)[C@H](O)[C@@H](NC(=O)OC(C)(C)C)c4ccccc4)C[C@@](O)([C@@H](OC(=O)c4ccccc4)[C@H]21)C3(C)C [docetaxel, reference compound]",T/C volume,[2],0.27
same,PR rate,"[2]; rogaratinib 50 mg/kg BID, docetaxel 30 mg/kg Q7D, carboplatin 80 mg/kg Q7D / paclitaxel 24 mg/kg Q7D",40%
same,PRs (RECIST),"[3]; rogaratinib 50 mg/kg BID, docetaxel Q7D i.v., n=10",60%
same,maximum body weight loss,[4]; DMS-114 model,2.4%
same,maximum body weight losses,[4]; LU299 model,14.1%
same,tumor response post-treatment,LXFL1121 human NSCLC PDX; drug-free observation period after treatment,tumor regrowth was observed
"COCc1c(-c2cc3cc(C)cc(OC)c3s2)c2c(N)ncnn2c1CN1CCNC(=O)C1 [rogaratinib, 4‐{[4‐amino‐6‐(methoxymethyl)‐5‐(7‐methoxy‐5‐methyl‐1‐benzothiophen‐2‐yl)pyrrolo[2,1‐f][1,2,4]triazin‐7‐yl]methyl}piperazin‐2‐one]",ERK1/2 phosphorylation,[5],preventing ERK1/2 phosphorylation in the same concentration range
same,T/C volume,[2],0.34
same,FGFR2 and ERK1/2 phosphorylation levels in tumor,"[6]; 24-h time point after single dose 35, 50 or 65 mg/kg",returned to levels similar to the vehicle control
same,FGFR2 and ERK1/2 phosphorylation levels in tumor,"[6]; for at least five hours after single dose 35, 50 or 65 mg/kg",strong inhibition of FGFR signaling
same,auto-phosphorylation of FGFR4,[7],inhibited auto‐phosphorylation of FGFR4
same,unbound Cmax concentration in plasma,[8]; single dose 35 mg/kg after 10-day drug-free period,123 nM
same,unbound Cmax concentration in plasma,[8]; single dose 50 mg/kg after 10-day drug-free period,294 nM
same,unbound Cmax concentration in plasma,[8]; single dose 65 mg/kg after 10-day drug-free period,357 nM
same,auto-phosphorylation of FGFR2,[9],effectively inhibited
same,T/C volume,[3]; 50 mg/kg BID p.o.,0.33
same,inhibition of ERK1/2 phosphorylation,[10],less sensitive
same,IC50,[11],280 nM
same,IC50,CSF1R [12],166 nM
same,IC50,FGFR2 [13],< 1 nM
same,number of significant hits in a set of 77 non-kinase targets,77 non-kinase targets,3
same,Kd,VEGFR3 [14],150 nM
same,inhibition of ERK1/2 phosphorylation,p-ERK1/2 in RT-112 cells,potent inhibition
same,number of additional kinases besides FGFR1-4 with competition binding >65%,468 kinase targets; 100 nM rogaratinib,4
same,number of additional kinases besides FGFR1-4 with competition binding >65%,468 kinase targets; 1 μM rogaratinib,18
same,inhibition of ERK1/2 phosphorylation,[15],less sensitive
same,body weight losses,"[4]; C51 model, mice, monotherapy",≤ 10%
same,maximum body weight loss,[4]; DMS-114 model,5%
same,body weight losses,[4]; LU299 PDX model,≤ 10%
same,body weight losses,[4]; LXFL1121 PDX model,≤ 10%
same,maximum body weight loss,[4]; NCI-H716 model,5.2%
same,IC50,[16],11 nM
same,IC50,FGF2-stimulated HUVEC,16 nM
same,maximally tolerated dose,[17]; BID,50 mg/kg
same,maximally tolerated dose,[17]; QD,75 mg/kg
same,IC50,VEGFR3 [18],130 nM
same,phosphorylation of ERK1/2,[19],effectively inhibited
same,Kd,VEGFR1,190 nM
same,binding affinity to VEGFRs lower compared to FGFR1,"VEGFR1; VEGFR1, VEGFR3 vs FGFR1 Kd",about 100 fold
same,Kd,FGFR2 [20],5 nM
same,T/C volume,"LXFL1121 human NSCLC PDX; 50 mg/kg BID p.o., 22 days",0.26
same,partial responses (PR),[21],12.5%
same,IC50,[22],20 nM
same,IC50,TIE2,1300 nM
same,complete responses (CR) (RECIST),"C51 colon tumors [23]; 10 mg/kg QD, 2/8",25%
same,stable disease (SD) (RECIST),"C51 colon tumors [23]; 50 mg/kg QD, 1/8",12.5%
same,complete responses (CR) (RECIST),"C51 colon tumors [23]; 50 mg/kg QD, 3/8",37.5%
same,inhibition of ERK1/2 phosphorylation,[24],potent inhibition
same,inhibition of binding to CSF1R in KINOMEscan profiling,CSF1R [25],strong inhibition
same,antitumor efficacy,"C51 colon tumors [26]; 25 mg/kg QD p.o., 13 days",not efficacious
same,partial response (PR) rate (RECIST),C51 colon tumors [26]; 50 mg/kg QD,22%
same,stable disease (SD) rate (RECIST),"C51 colon tumors [26]; 75 mg/kg QD, 1/9 mice",11%
same,partial response (PR) rate (RECIST),C51 colon tumors [26]; 75 mg/kg QD,22%
same,IC50 VEGF-A-stimulated growth higher than FGF2-stimulated growth,VEGF-A-stimulated HUVEC; HUVEC,28 fold
same,IC50,VEGF-A-stimulated HUVEC; read-out: −logIC50 inhibition of VEGF-A-stimulated growth (converted),501 nM
same,IC50,"VEGF-A-stimulated HUVEC; HUVEC, read-out: IC50 inhibition of VEGF-A-stimulated growth",453 nM
same,body weight losses,[27],≤ 10%
